According to ChEMBL document CHEMBL1201861, “Genomics of Drug Sensitity in Cancer screening data, Wellcome Trust Sanger Institute”:

Tests used:
[1] = system: COR-L23; experiment: cells; assay type: functional, cell-based; conditions: Homo sapiens;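 note: cell viability assay measuring how strongly compounds suppress growth of COR-L23 cells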
Description: SANGER: Inhibition of human COR-L23 cell growth in a cell viability assay.

[2] = system: ChaGo-K-1; experiment: cells; assay type: functional, cell-based; conditions: Homo sapiens;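 note: growth inhibition of ChaGo-K-1 cells, read out with a cell viability assay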
Description: SANGER: Inhibition of human ChaGo-K-1 cell growth in a cell viability assay.

[3] = system: EGI-1; experiment: cells; assay type: functional, cell-based; conditions: Homo sapiens;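 note: cell viability readout used to gauge growth inhibition of EGI-1 cells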
Description: SANGER: Inhibition of human EGI-1 cell growth in a cell viability assay.

[4] = system: EW-22; experiment: cells; assay type: functional, cell-based; conditions: Homo sapiens;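 note: growth inhibition of the EW-22 cell line, measured with a cell viability readout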
Description: SANGER: Inhibition of human EW-22 cell growth in a cell viability assay.

[5] = system: HCT-116; experiment: cells; assay type: functional, cell-based; conditions: Homo sapiens
Description: SANGER: Inhibition of human HCT-116 cell growth in a cell viability assay.

[6] = system: HLE; experiment: cells; assay type: functional, cell-based; conditions: Homo sapiens;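 note: growth inhibition of human HLE cells, read out by a cell viability assay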
Description: SANGER: Inhibition of human HLE cell growth in a cell viability assay.

[7] = system: HPAF-II; experiment: cells; assay type: functional, cell-based; conditions: Homo sapiens;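 note: growth inhibition of HPAF-II cells, read out with a cell viability assay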
Description: SANGER: Inhibition of human HPAF-II cell growth in a cell viability assay.

[8] = system: HT1197; experiment: cells; assay type: functional, cell-based, HT-1197; conditions: Homo sapiens
Description: SANGER: Inhibition of human HT-1197 cell growth in a cell viability assay.

[9] = system: HuP-T4; experiment: cells; assay type: functional, cell-based; conditions: Homo sapiens;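 note: cell viability assay measuring how much HuP-T4 cell growth is inhibited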
Description: SANGER: Inhibition of human HuP-T4 cell growth in a cell viability assay.

[10] = system: KU-19-19; experiment: cells; assay type: functional, cell-based; conditions: Homo sapiens
Description: SANGER: Inhibition of human KU-19-19 cell growth in a cell viability assay.

[11] = system: KYSE-150 cell line; experiment: cells; assay type: functional, cell-based; conditions: Homo sapiens;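 note: growth inhibition of human KYSE-150 cells, read out with a cell viability assay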
Description: SANGER: Inhibition of human KYSE-150 cell growth in a cell viability assay.

[12] = system: KYSE-180; experiment: cells; assay type: functional, cell-based; conditions: Homo sapiens;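 note: growth inhibition of KYSE-180 cells, read out with a cell viability assay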
Description: SANGER: Inhibition of human KYSE-180 cell growth in a cell viability assay.

[13] = system: KYSE-270; experiment: cells; assay type: functional, cell-based; conditions: Homo sapiens;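 note: cell growth inhibition measured with a viability assay in the human KYSE-270 line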
Description: SANGER: Inhibition of human KYSE-270 cell growth in a cell viability assay.

[14] = system: ME-180; experiment: cells; assay type: functional, cell-based; conditions: Homo sapiens;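 note: cell viability assay measuring growth inhibition of ME-180 cells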
Description: SANGER: Inhibition of human ME-180 cell growth in a cell viability assay.

[15] = system: MEL-HO; experiment: cells; assay type: functional, cell-based; conditions: Homo sapiens
Description: SANGER: Inhibition of human MEL-HO cell growth in a cell viability assay.

[16] = system: MEL-JUSO; experiment: cells; assay type: functional, cell-based; conditions: Homo sapiens;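 note: growth inhibition of human MEL-JUSO cells, read out with a cell viability assay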
Description: SANGER: Inhibition of human MEL-JUSO cell growth in a cell viability assay.

[17] = system: NB14; experiment: cells; assay type: functional, cell-based; conditions: Homo sapiens;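 note: growth inhibition of NB14 cells measured with a cell viability assay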
Description: SANGER: Inhibition of human NB14 cell growth in a cell viability assay.

[18] = system: NCI-H1048; experiment: cells; assay type: functional, cell-based; conditions: Homo sapiens;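 note: growth inhibition of human NCI-H1048 cells, read out with a cell viability assay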
Description: SANGER: Inhibition of human NCI-H1048 cell growth in a cell viability assay.

[19] = system: NCI-H1703; experiment: cells; assay type: functional, cell-based; conditions: Homo sapiens;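 note: growth inhibition of NCI-H1703 cells, read out via a cell viability assay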
Description: SANGER: Inhibition of human NCI-H1703 cell growth in a cell viability assay.

[20] = system: NCI-H2228; experiment: cells; assay type: functional, cell-based; conditions: Homo sapiens;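 note: growth inhibition of human NCI-H2228 cells, read out by a cell viability assay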
Description: SANGER: Inhibition of human NCI-H2228 cell growth in a cell viability assay.

[21] = system: NCI-H2347; experiment: cells; assay type: functional, cell-based; conditions: Homo sapiens;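 note: growth inhibition of the cell line, read out with a cell viability assay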
Description: SANGER: Inhibition of human NCI-H2347 cell growth in a cell viability assay.

[22] = system: PANC-03-27; experiment: cells; assay type: functional, cell-based; conditions: Homo sapiens
Description: SANGER: Inhibition of human PANC-03-27 cell growth in a cell viability assay.

[23] = system: PANC-08-13; experiment: cells; assay type: functional, cell-based; conditions: Homo sapiens
Description: SANGER: Inhibition of human PANC-08-13 cell growth in a cell viability assay.

[24] = system: PC-14; experiment: cells; assay type: functional, cell-based; conditions: Homo sapiens;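 note: cell viability assay measuring inhibition of PC-14 cell growth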
Description: SANGER: Inhibition of human PC-14 cell growth in a cell viability assay.

[25] = system: RMG-I; experiment: cells; assay type: functional, cell-based; conditions: Homo sapiens;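 note: growth inhibition of human RMG-I cells, read out with a cell viability assay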
Description: SANGER: Inhibition of human RMG-I cell growth in a cell viability assay.

[26] = system: SNU-387; experiment: cells; assay type: functional, cell-based; conditions: Homo sapiens
Description: SANGER: Inhibition of human SNU-387 cell growth in a cell viability assay.

[27] = system: SNU-423; experiment: cells; assay type: functional, cell-based; conditions: Homo sapiens
Description: SANGER: Inhibition of human SNU-423 cell growth in a cell viability assay.

[28] = system: SW1463; experiment: cells; assay type: functional, cell-based; conditions: Homo sapiens;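 note: growth inhibition of SW1463 cells, determined with a cell viability assay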
Description: SANGER: Inhibition of human SW1463 cell growth in a cell viability assay.

[29] = system: SW48; experiment: cells; assay type: functional, cell-based; conditions: Homo sapiens;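 note: growth inhibition of SW48 cells, read out with a cell viability assay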
Description: SANGER: Inhibition of human SW48 cell growth in a cell viability assay.

[30] = system: SW780; experiment: cells; assay type: functional, cell-based; conditions: Homo sapiens;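 note: growth inhibition of the cells, read out with a cell viability assay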
Description: SANGER: Inhibition of human SW780 cell growth in a cell viability assay.

[31] = system: T47D; experiment: cells; assay type: functional, cell-based; conditions: Homo sapiens;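 note: growth inhibition of human T47D cells, measured with a cell viability assay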
Description: SANGER: Inhibition of human T47D cell growth in a cell viability assay.

[32] = system: 647-V; experiment: cells; assay type: functional, cell-based; conditions: Homo sapiens;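 note: growth inhibition of 647-V cells, read out with a cell viability assay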
Description: SANGER: Inhibition of human 647-V cell growth in a cell viability assay.

[33] = system: A 172; experiment: cells; assay type: functional, cell-based; conditions: Homo sapiens;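 note: growth inhibition of A172 cells, measured with a cell viability readout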
Description: SANGER: Inhibition of human A172 cell growth in a cell viability assay.

[34] = system: AGS; experiment: cells; assay type: functional, cell-based; conditions: Homo sapiens;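 note: growth inhibition of AGS cells, determined with a cell viability assay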
Description: SANGER: Inhibition of human AGS cell growth in a cell viability assay.

[35] = system: BFTC-909; experiment: cells; assay type: functional, cell-based; conditions: Homo sapiens
Description: SANGER: Inhibition of human BFTC-909 cell growth in a cell viability assay.

[36] = system: C3A; experiment: cells; assay type: functional, cell-based; conditions: Homo sapiens;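 note: growth inhibition of C3A human cells, quantified with a cell viability readout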
Description: SANGER: Inhibition of human C3A cell growth in a cell viability assay.

[37] = system: CAL-62; experiment: cells; assay type: functional, cell-based; conditions: Homo sapiens;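 note: growth inhibition of CAL-62 cells, read out with a cell viability assay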
Description: SANGER: Inhibition of human CAL-62 cell growth in a cell viability assay.

[38] = system: TYK-nu; experiment: cells; assay type: functional, cell-based; conditions: Homo sapiens;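 note: growth inhibition of human TYK-nu cells, read out by a cell viability assay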
Description: SANGER: Inhibition of human TYK-nu cell growth in a cell viability assay.

[39] = system: YH-13; experiment: cells; assay type: functional, cell-based; conditions: Homo sapiens;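 note: cell viability readout of growth suppression in the human YH-13 cell line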
Description: SANGER: Inhibition of human YH-13 cell growth in a cell viability assay.

[40] = system: COR-L279; experiment: SANGER: Inhibition of human COR-L279 cell growth in a cell viability assay.; assay type: functional, cell-based
[41] = system: Daudi; experiment: cells; assay type: functional, cell-based; conditions: Homo sapiens;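 note: growth inhibition of Daudi cells, read out by a viability assay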
Description: SANGER: Inhibition of human Daudi cell growth in a cell viability assay.

[42] = system: EB2; experiment: cells; assay type: functional, cell-based; conditions: Homo sapiens;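 note: growth inhibition of EB2 cells, read out with a cell viability assay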
Description: SANGER: Inhibition of human EB2 cell growth in a cell viability assay.

[43] = system: ECC4; experiment: cells; assay type: functional, cell-based; conditions: Homo sapiens;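 note: growth inhibition of ECC4 cells, read out with a cell viability assay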
Description: SANGER: Inhibition of human ECC4 cell growth in a cell viability assay.

[44] = system: EVSA-T; experiment: cells; assay type: functional, cell-based; conditions: Homo sapiens;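 note: growth inhibition of EVSA-T cells, read out with a cell viability assay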
Description: SANGER: Inhibition of human EVSA-T cell growth in a cell viability assay.

[45] = system: IST-SL2; experiment: cells; assay type: functional, cell-based; conditions: Homo sapiens;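 note: growth inhibition of human IST-SL2 cells, read out by a cell viability assay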
Description: SANGER: Inhibition of human IST-SL2 cell growth in a cell viability assay.

[46] = system: KMS-12-PE; experiment: cells; assay type: functional, cell-based; conditions: Homo sapiens;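 note: growth inhibition of human KMS-12-PE cells, measured with a cell viability assay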
Description: SANGER: Inhibition of human KMS-12-PE cell growth in a cell viability assay.

[47] = system: LB996-RCC; experiment: cells; assay type: functional, cell-based; conditions: Homo sapiens
Description: SANGER: Inhibition of human LB996-RCC cell growth in a cell viability assay.

[48] = system: MONO-MAC-6; experiment: cells; assay type: functional, cell-based; conditions: Homo sapiens;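 note: cell viability assay measuring growth inhibition of human MONO-MAC-6 cells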
Description: SANGER: Inhibition of human MONO-MAC-6 cell growth in a cell viability assay.

[49] = system: NB1; experiment: cells; assay type: functional, cell-based; conditions: Homo sapiens
Description: SANGER: Inhibition of human NB1 cell growth in a cell viability assay.

[50] = system: NCI-H2081; experiment: cells; assay type: functional, cell-based; conditions: Homo sapiens;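 note: growth inhibition of human NCI-H2081 cells, read out with a cell viability assay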
Description: SANGER: Inhibition of human NCI-H2081 cell growth in a cell viability assay.

[51] = system: NCI-H322M; experiment: cells; assay type: functional, cell-based; conditions: Homo sapiens;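 note: cell viability assay measuring inhibition of growth of human NCI-H322M cells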
Description: SANGER: Inhibition of human NCI-H322M cell growth in a cell viability assay.

[52] = system: NCI-H748; experiment: cells; assay type: functional, cell-based; conditions: Homo sapiens;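 note: growth inhibition of NCI-H748 cells, measured by a cell viability assay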
Description: SANGER: Inhibition of human NCI-H748 cell growth in a cell viability assay.

[53] = system: NCI-H889; experiment: cells; assay type: functional, cell-based; conditions: Homo sapiens;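 note: cell growth inhibition of the cell line, read out with a viability assay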
Description: SANGER: Inhibition of human NCI-H889 cell growth in a cell viability assay.

[54] = system: SNU-16; experiment: cells; assay type: functional, cell-based; conditions: Homo sapiens;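 note: growth inhibition of human SNU-16 cells, determined with a cell viability readout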
Description: SANGER: Inhibition of human NCI-SNU-16 cell growth in a cell viability assay.

[55] = system: RPMI 8402; experiment: SANGER: Inhibition of human RPMI-8402 cell growth in a cell viability assay.; assay type: functional, cell-based
[56] = system: A253 cell line; experiment: cells; assay type: functional, cell-based; conditions: Homo sapiens;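 note: growth inhibition of A253 cells, read out with a cell viability assay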
Description: SANGER: Inhibition of human A253 cell growth in a cell viability assay.

[57] = system: TE-441-T; experiment: cells; assay type: functional, cell-based; conditions: Homo sapiens
Description: SANGER: Inhibition of human TE-441-T cell growth in a cell viability assay.

[58] = system: D-542MG; experiment: cells; assay type: functional, cell-based; conditions: Homo sapiens
Description: SANGER: Inhibition of human D-542MG cell growth in a cell viability assay.

[59] = system: MOLT-13; experiment: cells; assay type: functional, cell-based; conditions: Homo sapiens;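 note: IC50 for suppression of MOLT-13 cell growth, read out with a cell viability assay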
Description: SANGER: Inhibition of human MOLT-13 cell growth in a cell viability assay.

NC(=O)c1ncn([C@@H]2O[C@H](COP(=O)(O)O)[C@@H](O)[C@H]2O)c1N
IC50 [1]: 728 µM | IC50 [2]: 1.38 mM | IC50 [3]: > 2 mM | IC50 [4]: > 2000 µM | IC50 [5]: 424 µM | IC50 [6]: > 2 mM | IC50 [7]: > 2 mM | IC50 [8]: > 2 mM | IC50 [9]: > 2 mM | IC50 [10]: > 2 mM | IC50 [11]: 1.01 mM | IC50 [12]: 453 µM | IC50 [13]: > 2 mM | IC50 [14]: 416 µM | IC50 [15]: 397 µM | IC50 [16]: > 2 mM | IC50 [17]: 1450 µM | IC50 [18]: > 2 mM | IC50 [19]: > 2 mM | IC50 [20]: 1.95 mM | IC50 [21]: > 2 mM | IC50 [22]: > 2 mM | IC50 [23]: 1.3 mM | IC50 [24]: 379 µM | IC50 [25]: > 2 mM | IC50 [26]: > 2 mM | IC50 [27]: 1.22 mM | IC50 [28]: > 2 mM | IC50 [29]: 932 µM | IC50 [30]: > 2 mM | IC50 [31]: 413 µM | IC50 [32]: > 2 mM | IC50 [33]: > 2 mM | IC50 [34]: > 2 mM | IC50 [35]: > 2 mM | IC50 [36]: > 2 mM | IC50 [37]: > 2 mM | IC50 [38]: > 2 mM | IC50 [39]: > 2 mM

Cc1n[nH]c2ccc(-c3cncc(OC[C@@H](N)Cc4c[nH]c5ccccc45)c3)cc12 [A-443654]
IC50 [40]: 570 nM | IC50 [41]: 355 nM | IC50 [42]: > 1020 nM | IC50 [43]: > 1020 nM | IC50 [44]: 220 nM | IC50 [45]: 194 nM | IC50 [46]: > 1020 nM | IC50 [47]: 122 nM | IC50 [48]: 77.2 nM | IC50 [49]: 117 nM | IC50 [17]: > 1.02 µM | IC50 [50]: > 1020 nM | IC50 [51]: > 1020 nM | IC50 [52]: 508 nM | IC50 [53]: > 1020 nM | IC50 [54]: > 1020 nM | IC50 [55]: 184 nM | IC50 [56]: 393 nM | IC50 [57]: 798 nM

Cc1nc(Nc2ncc(C(=O)Nc3c(C)cccc3Cl)s2)cc(N2CCN(CCO)CC2)n1 [DASATINIB]
IC50 [40]: > 1280 nM | IC50 [41]: > 1280 nM | IC50 [42]: > 1280 nM | IC50 [43]: > 1280 nM | IC50 [44]: > 1280 nM | IC50 [45]: 503 nM | IC50 [46]: > 1280 nM | IC50 [47]: 9.91 nM | IC50 [48]: > 1280 nM | IC50 [49]: > 1280 nM | IC50 [17]: > 1.28 µM | IC50 [50]: > 1280 nM | IC50 [51]: > 1280 nM | IC50 [52]: > 1280 nM | IC50 [53]: > 1280 nM | IC50 [54]: > 1280 nM | IC50 [55]: > 1280 nM | IC50 [56]: > 1280 nM | IC50 [57]: > 1280 nM

CCn1c(-c2nonc2N)nc2cnc(Oc3cccc(NC(=O)c4ccc(OCCN5CCOCC5)cc4)c3)cc21 [GSK-269962A]
IC50 [40]: 2070 nM | IC50 [58]: > 2500 nM | IC50 [41]: 2100 nM | IC50 [42]: > 2500 nM | IC50 [43]: > 2500 nM | IC50 [44]: > 2500 nM | IC50 [4]: > 2.5 µM | IC50 [45]: > 2500 nM | IC50 [46]: > 2500 nM | IC50 [47]: > 2500 nM | IC50 [59]: > 2500 nM | IC50 [48]: > 2500 nM | IC50 [49]: > 2500 nM | IC50 [17]: > 2.5 µM | IC50 [50]: > 2500 nM | IC50 [51]: > 2500 nM | IC50 [52]: > 2500 nM | IC50 [53]: > 2500 nM | IC50 [54]: > 2500 nM | IC50 [55]: > 2500 nM | IC50 [56]: > 2500 nM | IC50 [57]: > 2500 nM

Cc1[nH]c(/C=C2\C(=O)Nc3ccc(S(=O)(=O)Cc4c(Cl)cccc4Cl)cc32)c(C)c1C(=O)N1CCC[C@@H]1CN1CCCC1 [PHA-665752]
IC50 [40]: > 2000 nM | IC50 [41]: > 2000 nM | IC50 [42]: > 2000 nM | IC50 [43]: > 2000 nM | IC50 [44]: > 2000 nM | IC50 [4]: > 2 µM | IC50 [45]: > 2000 nM | IC50 [46]: > 2000 nM | IC50 [47]: > 2000 nM | IC50 [59]: > 2000 nM | IC50 [48]: > 2000 nM | IC50 [49]: > 2000 nM | IC50 [17]: > 2 µM | IC50 [50]: > 2000 nM | IC50 [51]: > 2000 nM | IC50 [52]: > 2000 nM | IC50 [53]: > 2000 nM | IC50 [54]: > 2000 nM | IC50 [55]: > 2000 nM | IC50 [56]: > 2000 nM | IC50 [57]: > 2000 nM
